Laboratory results published in US8153693B2, “Compounds for the selective treatment of the intestinal immuno-inflammatory component of the celiac disease” (Giuliani International Limited, priority 2007, dated 2012).

Experiments:
cytokines = experiment: Organ culture of duodenal biopsies, cytokines overall; format: cell-based, human; conditions: biopsies of celiac disease subjects versus subjects without celiac disease
Method: The biopsies were washed in saline for two minutes at least three times. The biopsies were placed in culture media having a volume equal to 1 ml: The biopsies are incubated in an O2 (95%) and CO2 (5%) atmosphere at a temperature of 37° C. for a period ranging from 4 h to 72 h. Three different amounts of medium are shared for the ELISA assay of Th1 and Th2 cytokines released in culture media.

PPARγ = target: T1, PPARγ (Homo sapiens, UniProt P37231); experiment: PPARγ activation, PPRE luciferase reporter in transfected HT-29 STD cells (Example 7); format: cell-based; conditions: 30 mM, positive control
T1 construct: HT-29 STD cells were transiently transfected using the Effectene™ transfection reagent; endogenous in cells; host or cells: HT-29 STD (ATCC HTB-38)
T1 sequence (P37231 1-505): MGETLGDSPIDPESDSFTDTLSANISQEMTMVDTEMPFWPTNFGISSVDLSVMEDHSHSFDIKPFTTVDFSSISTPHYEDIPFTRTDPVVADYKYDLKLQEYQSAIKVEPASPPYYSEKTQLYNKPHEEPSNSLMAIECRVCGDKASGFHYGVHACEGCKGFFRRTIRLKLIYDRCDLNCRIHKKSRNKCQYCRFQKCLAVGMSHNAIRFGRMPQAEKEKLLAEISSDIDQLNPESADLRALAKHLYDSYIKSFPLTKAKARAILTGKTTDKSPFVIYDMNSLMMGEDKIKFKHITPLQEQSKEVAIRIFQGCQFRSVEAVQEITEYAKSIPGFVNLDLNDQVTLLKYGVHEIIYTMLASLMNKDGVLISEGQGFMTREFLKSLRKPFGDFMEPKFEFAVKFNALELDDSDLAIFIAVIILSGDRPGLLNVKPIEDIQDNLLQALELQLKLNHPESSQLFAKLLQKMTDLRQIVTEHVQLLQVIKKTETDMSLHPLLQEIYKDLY
Method: The colon carcinoma cell line HT-29 STD (ATCC HTB-38) was routinely grown in DMEM supplemented with 10% heat-FCS, and antibiotics.
HT-29 STD cells were transiently transfected using the Effectene™ transfection reagent (Qiagen™) according to instructions from the manufacturer. To test PPARγ activation, we performed transfection with 500 ng of a minimal promoter construct containing two copies of PPRE obtained from the cytochrome p450 4A (2XCYP). The renilla luciferase plasmid (0.1 μg/well) was also transfected as an internal control for monitoring transfection efficiency and for normalizing the firefly luciferase activity. Transfected cells were left for 24 hours incubation at 37° C. […] The pH of the drug solutions was adjusted to 7.4 with NaOH. Total cell extracts were prepared using the Passive Lysis Buffer (Promega™, Madison, Wis.). Luciferase activity was assayed in 20 μl of the extract using Promega's Dual Luciferase assay system according to manufacturer's protocol. Transfections were assayed in triplicate in at least three separate experiments. The luciferase activity was expressed as fold of the activity obtained in cells treated with the different molecules dividing by luciferase activity from non stimulated cells.
We investigated PPARγ transcriptional activity by transient transfections of epithelial cells with the renilla luciferase and PPRE plasmids. […]

IFN [1] = experiment: Cytokine assay (ELISA) in culture liquids of duodenal biopsy organ cultures, 5-ASA 1.5-8.0 mg per ml, 4 h to 72 h: IFN; format: cell-based, human; conditions: for IFN, PT + 5ASA C, Mean / IFN, PT + 5ASA C, Median: peptic-tryptic digest of gliadin (PT)
Method: (§1) 3 groups of subjects were evaluated. The first (atrophic) group included 29 subjects with serum tests positive to antiendomysium and anti-transglutaminase antibodies, with a neo-diagnosis of celiac disease and gluten-containing diet. The second (Remission) group included 17 celiac disease subjects in clinical remission and gluten-free diet for at least 6 months. The third (Healthy) group included subjects not suffering from the celiac disease but suffering from inflammation of the gastro-enteric tract. […] The biopsies were washed in saline for two minutes at least three times. […] Three different amounts of medium are shared for the ELISA assay of Th1 and Th2 cytokines released in culture media.

TNF [2] = experiment: Cytokine assay (ELISA) from homogenate of cultured duodenal biopsies: TNF; format: cell-based, human; conditions: for TNF, PT + 5ASA O, Mean / TNF, PT + 5ASA O, Median: peptic-tryptic digest of gliadin (PT)
Method: (§2) The biopsies were washed in saline for two minutes at least three times. […] After an incubation time ranging from 4 h to 72 h, at a T of 37° C.: The bioptic fragment is washed three times in saline for two minutes The biopsies are homogenised by mechanical or chemical disintegration Centrifugation is carried out, the supernatant is collected and transferred in a 1.5 ml Eppendorf Fixed cytokines in the mucosal tissue are assayed by the Elisa assay.

IFN [3] = experiment: Cytokine assay (ELISA) from homogenate of cultured duodenal biopsies: IFN; format: cell-based, human; conditions: for IFN, PT + 5ASA O, Mean / IFN, PT + 5ASA O, Median: peptic-tryptic digest of gliadin (PT)
Method: as §2

TNF [4] = experiment: Cytokine assay (ELISA) in culture liquids of duodenal biopsy organ cultures: TNF; format: cell-based, human; conditions: for TNF, PT + 5ASA C, Mean / TNF, PT + 5ASA C, Median: peptic-tryptic digest of gliadin (PT)
Method: as §1

IFN-gamma = experiment: Gene expression (mRNA) by RT-PCR in cultured duodenal biopsies of celiac patients: IFN-gamma; format: cell-based, human; conditions: PT medium with 5-ASA versus PT medium, 37° C., 48 h; optical density of bands
[5] = Atrophic population, N 22, Wilcoxon p = 0.05
[6] = Atrophic population, N 22, Wilcoxon p = 0.08
[7] = Positive control population, N 7
[8] = Positive control population, N 7, Wilcoxon p = N.S.
[9] = Remission population, N 15, Wilcoxon p = 0.022
[10] = Remission population, N 15, Wilcoxon p = N.S.
[11] = Atrophic population, N 11, Wilcoxon p = 0.002
[12] = Atrophic population, N 11, Wilcoxon p = N.S.
[13] = Remission population, N 5, Wilcoxon p = N.S.
[14] = Atrophic population, N 9, Wilcoxon p = 0.003
[15] = Atrophic population, N 9, Wilcoxon p = 0.019
[16] = Remission population, N 4, Wilcoxon p = N.S.
[17] = Atrophic population, N 21, Wilcoxon p = N.S.

**Q.** What does the source list for Nc1ccc(O)c(C(=O)O)c1 [Compound 5ASA, mesalazine]?
**A.** effect of Mesalazine in culture media on the cytokines (cytokines): blocks the cytokines in celiac disease subjects only; increase of the reporter gene activity (PPARγ): 2.8±0.7 fold; IFN, Difference PT C/PT + 5ASA C, Mean (IFN [1]; [5]): 0.0657; IFN, Difference PT C/PT + 5ASA C, Median (IFN [1]; [5]): 0.0505; IFN, Difference Medium C/Medium + 5ASA C, Mean (IFN [1]; [6]): 0.0601; IFN, Difference Medium C/Medium + 5ASA C, Median (IFN [1]; [6]): 0.0260; IFN, PT + 5ASA C, Mean (IFN [1]; Atrophic population, N 22): 0.145; IFN, PT + 5ASA C, Median (IFN [1]; Atrophic population, N 22): 0.0545; IFN, Medium + 5ASA C, Mean (IFN [1]; [7]): 0.149; IFN, Medium + 5ASA C, Median (IFN [1]; [7]): 0.140; IFN, Difference Medium C/Medium + 5ASA C, Mean (IFN [1]; [8]): 0.004; IFN, Difference Medium C/Medium + 5ASA C, Median (IFN [1]; [8]): 0.029; IFN, Difference PT C/PT + 5ASA C, Mean (IFN [1]; [8]): 0.0247; IFN, Difference PT C/PT + 5ASA C, Median (IFN [1]; [8]): 0.0090; IFN, PT + 5ASA C, Mean (IFN [1]; [7]): 0.116; IFN, PT + 5ASA C, Median (IFN [1]; [7]): 0.121; IFN, Medium + 5ASA C, Mean (IFN [1]; Remission population, N 15): 0.201; IFN, Medium + 5ASA C, Median (IFN [1]; Remission population, N 15): 0.208; IFN, Difference PT C/PT + 5ASA C, Mean (IFN [1]; [9]): 0.101; IFN, Difference PT C/PT + 5ASA C, Median (IFN [1]; [9]): 0.0210; IFN, Difference Medium C/Medium + 5ASA C, Mean (IFN [1]; [10]): 0.0383; IFN, Difference Medium C/Medium + 5ASA C, Median (IFN [1]; [10]): 0.0500; IFN, PT + 5ASA C, Mean (IFN [1]; Remission population, N 15): 0.153; IFN, PT + 5ASA C, Median (IFN [1]; Remission population, N 15): 0.0960; TNF, Medium + 5ASA O, Mean (TNF [2]; Atrophic population, N 11): 0.123; TNF, Difference PT O/PT + 5ASA O, Mean (TNF [2]; [11]): 0.0554; TNF, Difference PT O/PT + 5ASA O, Median (TNF [2]; [11]): 0.0270; TNF, Difference Medium O/Medium + 5ASA O, Mean (TNF [2]; [12]): 0.0154; TNF, Difference Medium O/Medium + 5ASA O, Median (TNF [2]; [12]): 0.0100; TNF, PT + 5ASA O, Mean (TNF [2]; Atrophic population, N 11): 0.101; TNF, PT + 5ASA O, Median (TNF [2]; Atrophic population, N 11): 0.0980; TNF, Medium + 5ASA O, Mean (TNF [2]; Remission population, N 5): 0.122; TNF, Difference Medium O/Medium + 5ASA O, Mean (TNF [2]; [13]): −0.00; TNF, Difference Medium O/Medium + 5ASA O, Median (TNF [2]; [13]): 0.0050; TNF, Difference PT O/PT + 5ASA O, Mean (TNF [2]; [13]): 0.0194; TNF, Difference PT O/PT + 5ASA O, Median (TNF [2]; [13]): 0.0210; TNF, PT + 5ASA O, Mean (TNF [2]; Remission population, N 5): 0.107; TNF, PT + 5ASA O, Median (TNF [2]; Remission population, N 5): 0.110; IFN, Medium + 5ASA O, Mean (IFN [3]; Atrophic population, N 9): 0.202; IFN, Medium + 5ASA O, Median (IFN [3]; Atrophic population, N 9): 0.193; IFN, Difference Medium O/Medium + 5ASA O, Mean (IFN [3]; [14]): 0.0951; IFN, Difference Medium O/Medium + 5ASA O, Median (IFN [3]; [14]): 0.0560; IFN, Difference PT O/PT + 5ASA O, Mean (IFN [3]; [15]): 0.0437; IFN, Difference PT O/PT + 5ASA O, Median (IFN [3]; [15]): 0.0380; IFN, PT + 5ASA O, Mean (IFN [3]; Atrophic population, N 9): 0.179; IFN, PT + 5ASA O, Median (IFN [3]; Atrophic population, N 9): 0.193; IFN, Medium + 5ASA O, Mean (IFN [3]; Remission population, N 4): 0.133; IFN, Difference Medium O/Medium + 5ASA O, Mean (IFN [3]; [16]): 0.120; IFN, Difference PT O/PT + 5ASA O, Mean (IFN [3]; [16]): 0.0230; IFN, Difference PT O/PT + 5ASA O, Median (IFN [3]; [16]): 0.0215; IFN, PT + 5ASA O, Mean (IFN [3]; Remission population, N 4): 0.177; IFN, PT + 5ASA O, Median (IFN [3]; Remission population, N 4): 0.161; TNF, Medium + 5ASA C, Mean (TNF [4]; Atrophic population, N 21): 0.472; TNF, Medium + 5ASA C, Median (TNF [4]; Atrophic population, N 21): 0.204; TNF, Difference PT C/PT + 5ASA C, Median (TNF [4]; Atrophic population, N 21, Wilcoxon p < 0.0001): 0.0580; TNF, Difference Medium C/Medium + 5ASA C, Mean (TNF [4]; [17]): 0.0048; TNF, Difference Medium C/Medium + 5ASA C, Median (TNF [4]; [17]): 0.0150; TNF, PT + 5ASA C, Mean (TNF [4]; Atrophic population, N 21): 0.414; TNF, PT + 5ASA C, Median (TNF [4]; Atrophic population, N 21): 0.120; TNF, Medium + 5ASA C, Mean (TNF [4]; [7]): 0.259; TNF, Medium + 5ASA C, Median (TNF [4]; [7]): 0.229; TNF, Difference Medium C/Medium + 5ASA C, Mean (TNF [4]; [8]): 0.005; TNF, Difference Medium C/Medium + 5ASA C, Median (TNF [4]; [8]): 0.0040; TNF, Difference PT C/PT + 5ASA C, Mean (TNF [4]; [8]): 0.0226; TNF, Difference PT C/PT + 5ASA C, Median (TNF [4]; [8]): 0.0250; TNF, PT + 5ASA C, Mean (TNF [4]; [7]): 0.291; TNF, Medium + 5ASA C, Mean (TNF [4]; Remission population, N 15): 0.894; TNF, Medium + 5ASA C, Median (TNF [4]; Remission population, N 15): 0.571; TNF, Difference PT C/PT + 5ASA C, Median (TNF [4]; Remission population, N 15, Wilcoxon p = 0.005): 0.221; TNF, Difference Medium C/Medium + 5ASA C, Mean (TNF [4]; [10]): 0.0541; TNF, Difference Medium C/Medium + 5ASA C, Median (TNF [4]; [10]): 0.0790; TNF, PT + 5ASA C, Mean (TNF [4]; Remission population, N 15): 0.305; TNF, PT + 5ASA C, Median (TNF [4]; Remission population, N 15): 0.545; gene expression (mRNA) of IFN-gamma (IFN-gamma): well reduced
